Among the data in publication PMC7269146, “Jingzhaotoxin-X, a gating modifier of Kv4.2 and Kv4.3 potassium channels purified from the venom of the Chinese tarantula Chilobrachys jingzhao” (The Journal of Venomous Animals and Toxins Including …, 2020) are inhibition values, retold here.

Where a SMILES comes first, the peptide text is derived from it. Bridges are numbered along the chain shown (N, C = ends).

The target in this experiment is T1, Kv4.3 (Rattus norvegicus, UniProt Q62897).
T1 construct: expressed in transfected cells; host or cells: HEK293t
T1 sequence (Q62897 1-655): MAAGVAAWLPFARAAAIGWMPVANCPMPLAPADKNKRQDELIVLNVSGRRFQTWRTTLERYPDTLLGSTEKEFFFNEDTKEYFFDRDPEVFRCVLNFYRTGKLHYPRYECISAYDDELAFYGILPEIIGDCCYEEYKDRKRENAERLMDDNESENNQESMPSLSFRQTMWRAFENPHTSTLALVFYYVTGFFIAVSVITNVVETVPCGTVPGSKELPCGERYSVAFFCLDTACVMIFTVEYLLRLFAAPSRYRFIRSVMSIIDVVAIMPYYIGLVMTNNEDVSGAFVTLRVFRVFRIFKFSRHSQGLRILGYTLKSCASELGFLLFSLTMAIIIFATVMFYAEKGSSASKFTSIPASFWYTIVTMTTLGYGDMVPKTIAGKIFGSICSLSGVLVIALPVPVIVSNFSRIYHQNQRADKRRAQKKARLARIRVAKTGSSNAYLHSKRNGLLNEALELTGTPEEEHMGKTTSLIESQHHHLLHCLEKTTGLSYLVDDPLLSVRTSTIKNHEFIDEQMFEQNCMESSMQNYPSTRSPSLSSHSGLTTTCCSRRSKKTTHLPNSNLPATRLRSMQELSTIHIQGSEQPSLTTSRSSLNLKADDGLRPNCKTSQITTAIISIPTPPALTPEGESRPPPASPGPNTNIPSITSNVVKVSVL
The experiment can be described thus: microelectrode voltage-clamp, Xenopus laevis oocytes, Kv4.3. Type of experiment: cell-based. Conditions: +20 mV from -90 mV, n = 5, read-out: inhibition of Kv4.3 current. From the text: Rat cDNA genes encoding Kv4.2 (Accession: NM_031730.2) and Kv4.3 (Accession: AB003587.1) were subcloned to vector pcDNA3.1. In addition, human cDNA genes encoding Nav1.7 (Accession: DQ857292.1) and Nav1.5 (Accession: AB158469.2) were subcloned to vectors pcDNA3.1-mod and pcDNA3.1, separately. Then, Kv4.2, Kv4.3, Nav1.5 and Nav1.7 constructs were transiently transfected into the human embryonic kidney 293t (HEK293t) cells using lipofectamine 2000 (Invitrogen, USA) in accordance with manufacturer protocols. Thereafter, HEK293 cells were inoculated within Dulbecco’s modified Eagle’s medium (DMEM) containing 10% fetal bovine serum (FBS) at 5% CO2 and 37°C. The Kv4.3 channel and the Kv4.2 counterpart were then transfected in the absence of β subunit. Subsequently, cells were incubated with a DNA-lipofectamine mixture (one reporter plasmid for green fluorescence protein and channel constructs) for 4-6 h, and were washed with the fresh medium.
Briefly, plasmids were linearized, and transcription was carried out according to the standardized protocol. Afterwards, the capped cRNAs that encoded the related ion channels were prepared. […]

On to `CC(C)C[C@@H]1NC(=O)[C@H](CCCCN)NC(=O)[C@H](Cc2ccc(O)cc2)NC(=O)[C@@H]2CSSC[C@@H]3NC(=O)[C@H](Cc4ccc(O)cc4)NC(=O)[C@H](Cc4ccccc4)NC(=O)CNC(=O)[C@H](C)NC(=O)[C@H](CSSC[C@H](NC(=O)[C@@H](N)CC(C)C)C(=O)N[C@@H](CO)C(=O)N[C@@H](CCCNC(=N)N)C(=O)N[C@@H](CCC(=O)O)C(=O)NCC(=O)N[C@@H](CCC(=O)O)C(=O)N[C@@H](Cc4ccccc4)C(=O)N2)NC(=O)[C@H](CSSC[C@@H](C(=O)N[C@@H](Cc2ccc(O)cc2)C(=O)N[C@@H](CCCNC(=N)N)C(=O)N[C@@H](CC(N)=O)C(=O)O)NC(=O)[C@H](Cc2c[nH]cn2)NC(=O)[C@H](CC(C)C)NC(=O)[C@H](C(C)C)NC(=O)[C@H](Cc2ccccc2)NC(=O)[C@H](C)NC(=O)[C@H](CCCCN)NC3=O)NC(=O)[C@H](CCCCN)NC(=O)[C@H](CCCNC(=N)N)NC1=O` [JZTX-X, Jingzhaotoxin-X] (H-LCSREGEFCYKLRKCCAGFYCKAFVLHCYRN-OH; disulfide 2-16, 9-21, 15-28; N-terminus assumed), for which the inhibition at 1 µM is 72.4 ± 4.8%.

For orientation: inhibition means the drop in the measured response relative to a control, in per cent.
